The text below walks through data of US8642516B2, “Chemically-defined arrays for screening cell-substrate interactions” (Wisconsin Alumni Research Foundation, priority 2012, dated 2014).

The subject of test [1] is HUVEC. Description: HUVEC attachment to SAM spots presenting mutant ligand (Example 8). The format is cell-based, human. The procedure: Specifically, SAM array spots presenting mixed ligands were prepared as described above. SAM arrays presenting varied ligand densities of covalently immobilized VEGF receptor-binding peptide ([…], here referred to as “VR-BP”; SEQ ID NO:17) and varied ligand densities of the fibronectin-derived cell adhesion peptide (GRGDSP, SEQ ID NO:18) were used to probe for changes in HUVEC attachment, proliferation and tubulogenesis. Control over individual ligand density was achieved by mixing scrambled VR-BP and mutant GRGESP (SEQ ID NO:19) with functional VR-BP or GRGDSP (SEQ ID NO:18) peptides, respectively. Therefore, in a typical SAM array, SAMs were locally formed within spots using an alkanethiolate mixture of 94% HS—C11-EG3-OH and 6% HS—C11-EG6-COOH to create substrates with a total of 6% carboxylate groups for peptide conjugation. Next, to create a spot presenting 5% GRGDSP (SEQ ID NO:18) and 1% VR-BP, a 300 μM peptide solution with 250 μM GRGDSP (SEQ ID NO:18) and 50 μM VR-BP was used during peptide conjugation. […] As mentioned previously, ligand concentrations were measured using UV/Vis since all peptides either contained residues that absorbed strongly at 280 nm, or were engineered to contain tryptophan residues in the poly-glycine tail. […]

Another test concerns hMSC. Description: hMSC surface coverage over time on SAM spots presenting GRGDSP with BR-BP and HPG-BP. It is filed as cell-based, human. The conditions noted are these: low GRGDSP density SAM spots, cultured 20 days. The source says:
In this SAM array approach, each spot was designed to contain the same total molar density (mol/cm^2) of peptide from spot to spot. Therefore, control over individual peptide density was achieved by mixing scrambled BR-BP and HPG-BP and mutant GRGESP (SEQ ID NO:19) peptides with functional BR-BP, HPG-BP or GRGDSP (SEQ ID NO:18) peptides, respectively. Therefore, in a typical SAM array, SAMs were locally formed within spots using an alkanethiolate mixture of 95% HS—C11-EG3-OH and 5% HS—C11-EG6-COOH to create substrates with a total of 5% carboxylate groups for peptide conjugation. Here, “X %” refers to the mole percent of alkanethiolate present during SAM formation and subsequently the approximate amount of an alkanethiolate present on the surface after SAM formation. To regulate the density of active peptide present in each spot, mutant and scramble versions of peptides were included during peptide conjugation. […] As mentioned previously, peptide concentrations were easily measured using UV/Vis since all peptides either contained residues that absorbed strongly at 280 nm, or were engineered to contain tryptophan residues in the poly-glycine tail. […]

The test system of test [2] is HUVEC. Description: HUVEC survival and proliferation on SAM arrays presenting immobilized VR-BP with VEGF / SU5416. The format is cell-based, human. The procedure: (§1) Passage 2 HUVECs were expanded at low cell density (less than 70% confluence) on tissue culture polystyrene to no more than 14 population doublings. During HUVEC expansion, cells were cultured in medium 199 (m199, Mediatech, Manassas, Va.) containing 1% penicillin/streptomycin (Hyclone, Logan, Utah) and supplemented with Clonetics EGM-2 BullitKit (Lonza Walkersville, Inc., Walkersville, Md.) containing Hydrocortisone, hFGF-B, VEGF, R3-IGF-1, Ascorbic Acid, Heparin, FBS, hEGF, GA-1000 growth supplements. NIH 3T3 cells were expanded in Dulbecco's modified eagles medium (DMEM, Mediatech, Manassas, Va.) containing 1% penicillin/streptomycin and supplemented with 5% cosmic calf serum (Hyclone, Logan, Utah). Before seeding on SAM arrays, HUVECs in cell culture flasks were starved for 24 hours in medium containing 2% FBS and then removed from the plate using a 0.05% trypsin solution and resuspended in m199 with 2% FBS. Cell suspension was seeded onto SAM arrays in sterile polystyrene Petri dishes and incubated in a humid environment at 37° C. and 5% CO2. After allowing cells to attach for ˜1 hr, arrays were dipped in warm m199 with 2% FBS to remove loosely attached cells and then transferred to a rectangular multidish (Thermo Scientific/Nunc, Rochester, N.Y.) containing warm media with 2% FBS and imaged ˜2 hours later serving as “0 hr”. […]

For test [3], the system named is HUVEC. Description: HUVEC proliferation (Click-it EdU) in response to soluble morphogens on SAM arrays. It is filed as cell-based, human. The conditions noted are these: soluble, 10 ng/ml, 24 hours, m199 with 2% FBS, highest ligand density spots.
Method: Specifically, SAM array spots presenting mixed ligands were prepared as described above. SAM arrays presenting varied ligand densities of covalently immobilized VEGF receptor-binding peptide ([sequence], here referred to as “VR-BP”; SEQ ID NO:17) and varied ligand densities of the fibronectin-derived cell adhesion peptide (GRGDSP, SEQ ID NO:18) were used to probe for changes in HUVEC attachment, proliferation and tubulogenesis. Control over individual ligand density was achieved by mixing scrambled VR-BP and mutant GRGESP (SEQ ID NO:19) with functional VR-BP or GRGDSP (SEQ ID NO:18) peptides, respectively. Therefore, in a typical SAM array, SAMs were locally formed within spots using an alkanethiolate mixture of 94% HS—C11-EG3-OH and 6% HS—C11-EG6-COOH to create substrates with a total of 6% carboxylate groups for peptide conjugation. Next, to create a spot presenting 5% GRGDSP (SEQ ID NO:18) and 1% VR-BP, a 300 μM peptide solution with 250 μM GRGDSP (SEQ ID NO:18) and 50 μM VR-BP was used during peptide conjugation. Likewise, to create a spot presenting 2.5% GRGDSP (SEQ ID NO:18) and 0.1% VR-BP, a 300 μM peptide solution with 125 μM GRGDSP (SEQ ID NO:18), 125 μM GRGESP (SEQ ID NO:19), 5 μM VR-BP and 45 μM scrambled peptide was used during peptide conjugation. In this manner, the amount of active ligand could be varied between spots while holding the total ligand content constant.
Passage 2 HUVECs were expanded at low cell density (less than 70% confluence) on tissue culture polystyrene to no more than 14 population doublings. During HUVEC expansion, cells were cultured in medium 199 (m199, Mediatech, Manassas, Va.) containing 1% penicillin/streptomycin (Hyclone, Logan, Utah) and supplemented with Clonetics EGM-2 BullitKit (Lonza Walkersville, Inc., Walkersville, Md.) containing Hydrocortisone, hFGF-B, VEGF, R3-IGF-1, Ascorbic Acid, Heparin, FBS, hEGF, GA-1000 growth supplements. […]
Test [4] concerns HUVEC. Description: HUVEC attachment to SAM spots presenting immobilized VR-BP. It is filed as cell-based, human. The conditions noted are these: immobilized 1% VR-BP vs scrambled peptide, highest GRGDSP densities, 1 hour. As to the method:
as §1

Test [5] relates to HUVEC. Description: Endothelial tubulogenesis on SAM spots with matrigel overlay. It is filed as cell-based, human. The procedure: Specifically, SAM arrays seeded overnight with 50,000 HUVECs/cm^2 were rinsed with warm media and then flipped over onto cold matrigel (Growth factor reduced matrigel, BD Biosciences, Bedford, Mass.) in a rectangular multidish well containing varied concentrations of soluble recombinant VEGF. Matrigel was allowed to gel for 5 minutes, and then the array and matrigel layer were covered with warm m199 with 2% FBS. Arrays were then placed in a TIZ Tokai Hit incubated, humidified stage at 37° C. and 5% CO2 and each array spot was imaged using phase contrast microscopy every 15 minutes for 48 hours. Image analysis was performed using NIS Elements software. The total cell area and length of individual objects were measured in each array spot at 24 hours after seeding. To measure mean length of capillary-like structures, each image was contrasted and thresholded using a standard method to isolate elongated objects for automated length measurements. All objects with a length less than 20 μm were excluded from length measurements. To measure total area occupied by cells, the images were contrasted and thresholded to isolate all cell bodies from the background for automated area measurements. Objects with a length less than 10 μm were excluded from area measurements. Tubulogenesis in each spot was quantified by normalizing the mean length of objects to total cell area in each array spot. SAM array spots were imaged using a Nikon Eclipse Ti inverted microscope with a 10×PhL objective, equipped with Nikon's Perfect Focus System. 10× images were stitched using Nikon NIS Elements software to capture entire array spots and cell counting was performed using the cell counting application in NIS Elements. Statistical analysis of all data sets was performed using a two-tailed student's t-test, where p<0.05 is used to denote statistical significance.

A further test has as its system NIH 3T3 fibroblasts. Description: NIH 3T3 attachment to SAM spots presenting immobilized VR-BP. It is filed as cell-based. The note with it: immobilized 1% VR-BP vs scrambled peptide, 1 hour. The procedure:
as §1

In the case of “GRGESP [mutant peptide mixed with GRGDSP to control ligand density]”, in the test on HUVEC [1], the HUVEC attachment entry is “did not promote HUVEC attachment”.

KIPKASSVPTEL [BR-BP]: the hMSC surface coverage entry in the test with hMSC was “maintained hMSC surface coverage”.

On to KLTWQELYQLKYKGI [VR-BP], for which the HUVEC proliferation result in the test on HUVEC [2] (immobilized 1% VR-BP, in presence of soluble VEGF, high and low ligand densities) was “inhibited proliferation”. Besides, the HUVEC survival result in the test with HUVEC [2] (immobilized VR-BP at 1% density, without soluble VEGF or in presence of SU5416) is given as “decreased HUVEC survival”. For the same substance, in the test with HUVEC [3], the “HUVEC proliferation (EdU incorporation) compared to cells without stimulation” value is reported as “significant increases in proliferation”. Besides, in the test with HUVEC [4], the HUVEC attachment result is given as “significantly decreased”. In the test on HUVEC [5] (1% VR-BP vs 0% VR-BP, presence and absence of soluble VEGF), the “tubulogenesis (average tubule length per total cell area)” value is “increased tubulogenesis”. The tubulogenesis result in the test with HUVEC [5] (1% VR-BP vs lower VR-BP surfaces, absence of soluble VEGF) is “significantly increased”. Further, the “NIH 3T3 attachment” value in the test on NIH 3T3 fibroblasts is “no effect”.

In the case of VEGF, the “HUVEC proliferation (EdU incorporation) compared to cells without stimulation” value in the test on HUVEC [3] was “increased HUVEC proliferation”. The “tubulogenesis (average tubule length per total cell area)” value in the test with HUVEC [5] (soluble VEGF protein) is on record as “decreased tubulogenesis”.
